Source: patent US9000186B2, “Ring-fused heterocyclic derivative” (Kyowa Hakko Kirin Co., Ltd., priority 2011, dated 2015)
Read-outs that look alike come from different tables or passages of the source.

Tests used:
[1] = molecular target: T1, human Cav3.2 T-type Ca2+ channel (Homo sapiens, UniProt O95180); assay: Inhibitory effect for intracellular calcium response via Cav3.2 T-type Ca2+ channels (FLIPR Calcium 3 Assay Kit); assay type: cell-based
T1 construct: expressed in transfected cells; host or cells: KJMGER8 cells (Namalwa cell-derived cell line)

[2] = test system: morphine-induced pruritus mice; assay: Inhibitory effect for pruritus in morphine-induced pruritus mice; assay type: in vivo, male ddY mice; conditions: oral, dose of 30 mg/kg or less, 30 minutes before intrathecal morphine (1 nmol/5 μL); scratching counted for 30 minutes
Procedure: Morphine (1 nmol/5 μL, dissolved in physiological saline) or physiological saline was intrathecally administered between the fifth and sixth lumbar vertebrae of male ddY mice using a microsyringe fitted with a 30-gauge injection needle. Mice administered with only morphine were used as a control group, and mice administered with only physiological saline as a physiological saline-administered group.
After the morphine administration, the number of scratching behavior with the hind legs which observed immediately in the mice was measured for 30 minutes. Because mice show a rapid, continuous scratching behavior in each scratching behavior, a series of such behavior was counted as a single scratching behavior.
The test compounds were administered 30 minutes before the morphine administration. Each test compound was suspended in a 0.5% methylcellulose solution, and orally administered in 10 mL/kg volume.

[3] = human Cav3.2-expressing KJMGER8 cells (Namalwa-derived), calcium response induced by 5 mmol/L CaCl2, normalised to 3 μmol/L mibefradil, read-out: IC50 for the human Cav3.2 T-type Ca2+ current

T1 sequence (O95180 whole entry): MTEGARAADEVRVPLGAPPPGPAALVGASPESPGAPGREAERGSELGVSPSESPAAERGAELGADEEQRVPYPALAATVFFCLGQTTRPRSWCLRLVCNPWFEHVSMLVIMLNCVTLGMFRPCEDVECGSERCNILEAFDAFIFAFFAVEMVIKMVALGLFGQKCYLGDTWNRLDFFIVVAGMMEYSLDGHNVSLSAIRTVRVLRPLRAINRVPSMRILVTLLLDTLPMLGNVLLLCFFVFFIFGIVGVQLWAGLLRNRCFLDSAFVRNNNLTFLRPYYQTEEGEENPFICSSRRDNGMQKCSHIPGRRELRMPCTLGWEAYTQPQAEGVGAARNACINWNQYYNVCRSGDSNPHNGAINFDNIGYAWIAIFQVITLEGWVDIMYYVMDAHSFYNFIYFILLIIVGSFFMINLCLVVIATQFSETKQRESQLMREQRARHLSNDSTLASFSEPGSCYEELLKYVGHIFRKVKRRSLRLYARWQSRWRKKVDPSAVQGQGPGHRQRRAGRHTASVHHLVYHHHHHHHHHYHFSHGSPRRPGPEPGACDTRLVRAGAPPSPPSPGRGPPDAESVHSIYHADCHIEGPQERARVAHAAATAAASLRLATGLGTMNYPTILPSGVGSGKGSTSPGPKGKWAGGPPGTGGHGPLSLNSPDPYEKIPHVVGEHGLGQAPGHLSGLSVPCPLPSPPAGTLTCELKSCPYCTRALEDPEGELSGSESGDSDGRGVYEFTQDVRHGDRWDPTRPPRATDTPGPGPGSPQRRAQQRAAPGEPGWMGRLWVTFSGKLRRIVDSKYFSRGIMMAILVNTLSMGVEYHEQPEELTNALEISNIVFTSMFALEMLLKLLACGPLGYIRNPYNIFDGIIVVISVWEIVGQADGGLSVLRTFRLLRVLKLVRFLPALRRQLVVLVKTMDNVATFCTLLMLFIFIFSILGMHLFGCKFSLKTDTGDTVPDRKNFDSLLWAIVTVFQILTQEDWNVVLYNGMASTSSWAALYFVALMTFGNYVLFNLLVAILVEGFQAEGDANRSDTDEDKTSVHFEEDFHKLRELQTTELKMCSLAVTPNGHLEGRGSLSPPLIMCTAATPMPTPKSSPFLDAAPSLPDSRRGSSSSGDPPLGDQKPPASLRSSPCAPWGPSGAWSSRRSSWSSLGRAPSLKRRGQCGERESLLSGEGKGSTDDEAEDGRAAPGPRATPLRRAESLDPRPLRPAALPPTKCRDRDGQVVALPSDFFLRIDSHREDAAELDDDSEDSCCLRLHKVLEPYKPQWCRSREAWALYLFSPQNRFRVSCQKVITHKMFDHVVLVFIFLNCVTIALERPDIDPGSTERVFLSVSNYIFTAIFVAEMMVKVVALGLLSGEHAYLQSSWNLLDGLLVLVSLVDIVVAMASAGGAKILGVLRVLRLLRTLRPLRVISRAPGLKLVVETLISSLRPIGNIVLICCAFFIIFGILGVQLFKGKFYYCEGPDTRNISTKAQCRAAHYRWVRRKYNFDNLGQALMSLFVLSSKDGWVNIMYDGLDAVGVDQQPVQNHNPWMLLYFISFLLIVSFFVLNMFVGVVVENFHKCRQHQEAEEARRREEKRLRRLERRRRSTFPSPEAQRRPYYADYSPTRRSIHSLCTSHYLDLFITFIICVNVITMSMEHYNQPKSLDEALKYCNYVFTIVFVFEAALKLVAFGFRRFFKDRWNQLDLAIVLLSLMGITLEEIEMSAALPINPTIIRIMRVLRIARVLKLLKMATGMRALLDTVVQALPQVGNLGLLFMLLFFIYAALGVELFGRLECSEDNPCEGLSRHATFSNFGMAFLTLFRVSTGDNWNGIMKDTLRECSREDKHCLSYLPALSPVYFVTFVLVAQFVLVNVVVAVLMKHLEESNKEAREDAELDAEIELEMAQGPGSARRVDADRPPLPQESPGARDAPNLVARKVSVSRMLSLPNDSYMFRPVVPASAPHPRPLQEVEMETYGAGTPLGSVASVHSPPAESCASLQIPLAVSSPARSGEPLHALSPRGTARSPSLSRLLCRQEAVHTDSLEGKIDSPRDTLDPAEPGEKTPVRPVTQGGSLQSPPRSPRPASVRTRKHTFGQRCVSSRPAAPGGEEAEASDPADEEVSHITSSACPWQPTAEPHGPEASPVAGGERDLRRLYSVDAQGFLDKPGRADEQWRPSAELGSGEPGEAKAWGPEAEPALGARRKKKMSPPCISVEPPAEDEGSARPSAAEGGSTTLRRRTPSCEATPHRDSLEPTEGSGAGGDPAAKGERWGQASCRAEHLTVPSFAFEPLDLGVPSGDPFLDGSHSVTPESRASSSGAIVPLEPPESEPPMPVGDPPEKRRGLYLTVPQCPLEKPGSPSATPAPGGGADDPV

Row | Structure (SMILES) | IC50 [1] [nM] | increase of the scratching behavior observed in the morphine-induced pruritus mice [2] | IC50 [1, 3] [nM]
1 | CC1CCCN(C(=O)c2ccn3c(CC4CCCCC4)c(C(C)(C)C)nc3c2)C1 (stereo not drawn) [Compound 14, (2-tert-Butyl-3-cyclohexylmethylimidazo[1,2-a]pyridin-7-yl)(3-methylpiperidin-1-yl)methanone] | < 100 | inhibited | –
2 | CC(C)(C)c1nc2cc(C(=O)NC3CCC3)ccn2c1CC1CCCCC1 [Compound 15, 2-tert-Butyl-N-cyclobutyl-3-cyclohexylmethylimidazo[1,2-a]pyridine-7-carboxamide] | < 100 | inhibited | –
3 | CC(C)c1nc2cc(C(=O)Nc3ccccc3)ccn2c1COC1CCCCC1 [Compound 21, 3-Cyclohexyloxymethyl-2-isopropyl-N-phenylimidazo[1,2-a]pyridine-7-carboxamide] | – | inhibited | < 100
4 | CC(C)c1nc2cc(C(=O)Nc3ccncc3)ccn2c1COC1CCCCC1 [Compound 24, 3-Cyclohexyloxymethyl-2-isopropyl-N-(pyridin-4-yl)imidazo[1,2-a]pyridine-7-carboxamide] | – | inhibited | < 100
5 | CC(C)(C)c1nc2cc(C(=O)Nc3ccncc3)ccn2c1CC1CCC(F)(F)CC1 [Compound 34, 2-tert-Butyl-3-(4,4-difluorocyclohexylmethyl)-N-(pyridin-4-yl)imidazo[1,2-a]pyridine-7-carboxamide] | < 100 | inhibited | –
6 | O=C(Nc1ccncc1)c1ccn2c(CC3CCCCC3)c(C(F)(F)F)nc2c1 [Compound 35, 3-Cyclohexylmethyl-N-(pyridin-4-yl)-2-trifluoromethylimidazo[1,2-a]pyridine-7-carboxamide] | < 100 | inhibited | –
7 | O=C(Nc1ccncc1)c1ccn2c(CC3CCC(F)(F)CC3)c(C(F)(F)F)nc2c1 [Compound 36, 3-(4,4-Difluorocyclohexylmethyl)-N-(pyridin-4-yl)-2-trifluoromethylimidazo[1,2-a]pyridine-7-carboxamide] | – | inhibited | –
8 | CC(C)c1nc2cc(C(=O)Nc3ccncc3)ccn2c1S(=O)(=O)C1CCCCC1 [Compound 38, 3-Cyclohexylsulfonyl-2-isopropyl-N-(pyridin-4-yl)imidazo[1,2-a]pyridine-7-carboxamide] | < 100 | inhibited | –
9 | CC(C)c1nc2cc(C(=O)Nc3ccccc3)ccn2c1S(=O)(=O)C1CCCCC1 [Compound 41, 3-Cyclohexylsulfonyl-2-isopropyl-N-phenylimidazo[1,2-a]pyridine-7-carboxamide] | < 100 | inhibited | –
10 | Cc1cn2c(COC3CCCCC3)c(C(C)C)nc2cc1C(=O)Nc1ccncc1 [Compound 43, 3-Cyclohexyloxymethyl-2-isopropyl-6-methyl-N-(pyridin-4-yl)imidazo[1,2-a]pyridine-7-carboxamide] | < 100 | inhibited | –
11 | Cc1cc(C(=O)NC2CCOCC2)cc2nc(C(F)(F)F)c(CC3CCC(F)(F)CC3)n12 [Compound 44, 3-(4,4-Difluorocyclohexylmethyl)-5-methyl-N-(tetrahydro-2H-pyran-4-yl)-2-trifluoromethylimidazo[1,2-a]pyridine-7-carboxamide] | – | inhibited | –
12 | O=C(NC1CCC1)c1ccn2c(CC3CCC(F)(F)CC3)c(C(F)(F)F)nc2c1 [Compound 50, N-Cyclobutyl-3-(4,4-difluorocyclohexylmethyl)-2-trifluoromethylimidazo[1,2-a]pyridine-7-carboxamide] | < 100 | inhibited | –
13 | O=C(NC1CC(F)(F)C1)c1ccn2c(CC3CCC(F)(F)CC3)c(C(F)(F)F)nc2c1 [Compound 51, N-(3,3-Difluorocyclobutyl)-3-(4,4-difluorocyclohexylmethyl)-2-trifluoromethylimidazo[1,2-a]pyridine-7-carboxamide] | < 100 | inhibited | –
14 | CC1(NC(=O)c2ccn3c(CC4CCC(F)(F)CC4)c(C(F)(F)F)nc3c2)CCOCC1 [Compound 52, 3-(4,4-Difluorocyclohexylmethyl)-N-(4-methyltetrahydro-2H-pyran-4-yl)-2-trifluoromethylimidazo[1,2-a]pyridine-7-carboxamide] | < 100 | inhibited | –
15 | CC1(C)CC(NC(=O)c2ccn3c(CC4CCC(F)(F)CC4)c(C(F)(F)F)nc3c2)CCO1 (stereo not drawn) [Compound 54, 3-(4,4-Difluorocyclohexylmethyl)-N-(2,2-dimethyltetrahydro-2H-pyran-4-yl)-2-trifluoromethylimidazo[1,2-a]pyridine-7-carboxamide] | – | inhibited | –
16 | Cc1cc(C(=O)NC2CCC(O)CC2)cc2nc(C(F)(F)F)c(CC3CCC(F)(F)CC3)n12 (stereo not drawn) [Compound 70, 3-(4,4-Difluorocyclohexylmethyl)-N-(4-hydroxycyclohexyl)-5-methyl-2-trifluoromethylimidazo[1,2-a]pyridine-7-carboxamide] | < 100 | inhibited | –
17 | Cc1cn2c(CC3CCC(F)(F)CC3)c(C(F)(F)F)nc2cc1C(=O)NC1CCOCC1 [Compound 118, 3-(4,4-Difluorocyclohexylmethyl)-6-methyl-N-(tetrahydro-2H-pyran-4-yl)-2-trifluoromethylimidazo[1,2-a]pyridine-7-carboxamide] | – | inhibited | –
18 | CC(C)(C)NS(=O)(=O)c1c(C(C)(C)C)nc2cc(C(=O)NC3CCOCC3)c(Cl)cn12 [Compound 162, 2-tert-Butyl-3-(N-tert-butylsulfamoyl)-6-chloro-N-(tetrahydro-2H-pyran-4-yl)imidazo[1,2-a]pyridine-7-carboxamide] | < 100 | – | –
19 | Cc1cn2c(S(=O)(=O)C3CCCCC3)c(C(C)C)nc2cc1C(=O)Nc1ccccc1 [Compound 163, 3-(Cyclohexylsulfonyl)-2-isopropyl-6-methyl-N-phenyl-imidazo[1,2-a]pyridine-7-carboxamide] | – | – | < 100
20 | Cc1cn2c(S(=O)(=O)N3CCC(F)(F)CC3)c(C(C)C)nc2cc1C(=O)Nc1ccncc1 [Compound 165, 3-(4,4-Difluoropiperidin-1-ylsulfonyl)-2-isopropyl-6-methyl-N-(pyridin-4-yl)imidazo[1,2-a]pyridine-7-carboxamide] | – | – | < 100
21 | Cc1cn2c(S(=O)(=O)N3CC4(COC4)C3)c(C(C)C)nc2cc1C(=O)Nc1ccccc1 [Compound 166, 3-(2-Oxa-6-azaspiro[3.3]heptan-6-ylsulfonyl)-2-isopropyl-6-methyl-N-phenylimidazo[1,2-a]pyridine-7-carboxamide] | – | – | < 100
22 | Cc1cn2c(S(=O)(=O)NC(C)(C)C)c(C(C)C)nc2cc1C(=O)Nc1ccccc1 [Compound 168, 3-(N-tert-Butylsulfamoyl)-2-isopropyl-6-methyl-N-phenylimidazo[1,2-a]pyridine-7-carboxamide] | < 100 | – | –
23 | CC(C)c1nc2cc(-c3nc4ccccc4[nH]3)c(Cl)cn2c1S(=O)(=O)N1CC(F)(F)C1 [Compound 170, 2-{6-Chloro-3-(3,3-difluoroazetidin-1-ylsulfonyl)-2-isopropylimidazo[1,2-a]pyridin-7-yl}-1H-benzimidazole] | – | – | < 100
24 | CC(C)c1nc2nc(C(=O)Nc3ccccc3)ccn2c1S(=O)(=O)N1CCC(F)(F)CC1 [Compound 171, 3-(4,4-Difluoropiperidin-1-ylsulfonyl)-2-isopropyl-N-phenylimidazo[1,2-a]pyrimidine-7-carboxamide] | – | – | < 100
25 | CC(C)c1nc2nc(C(=O)NC3CCCCC3)ccn2c1S(=O)(=O)N1CCC(F)(F)CC1 [Compound 172, N-Cyclohexyl-3-(4,4-difluoropiperidin-1-ylsulfonyl)-2-isopropylimidazo[1,2-a]pyrimidine-7-carboxamide] | – | – | < 100
26 | CC(C)c1nc2cc(NC(=O)C3CCCCC3)ncn2c1S(=O)(=O)N1CCC(F)(F)CC1 [Compound 175, N-{3-(4,4-Difluoropiperidin-1-ylsulfonyl)-2-isopropylimidazo[1,2-c]pyrimidin-7-yl}cyclohexanecarboxamide] | – | – | < 100
27 | C#CC(C)(C)NS(=O)(=O)c1c(C(C)C)nc2cc(C(=O)Nc3ccccc3)c(Cl)cn12 [Compound 179, 6-Chloro-2-isopropyl-3-{N-(2-methylbut-3-yne-2-yl)sulfamoyl}-N-phenylimidazo[1,2-a]pyridine-7-carboxamide] | – | – | < 100
28 | O=C(NC1CC=CCC1)c1ccn2c(CC3CCC(F)(F)CC3)c(C(F)(F)F)nc2c1 (stereo not drawn) [Compound 180, N-(Cyclohex-3-enyl)-3-(4,4-difluorocyclohexylmethyl)-2-trifluoromethylimidazo[1,2-a]pyridine-7-carboxamide] | < 100 | – | –
29 | O=C(NOC1CCOCC1)c1cc2nc(C(F)(F)F)c(CC3CCC(F)(F)CC3)n2cc1Cl [Compound 181, 6-Chloro-3-(4,4-difluorocyclohexylmethyl)-N-(tetrahydro-2H-pyran-4-yloxy)-2-trifluoromethylimidazo[1,2-a]pyridine-7-carboxamide] | – | – | < 100
